Measured values taken from ChEMBL document CHEMBL1201862, “PubChem BioAssay data set” (2004).
The source made the active and inactive calls.

How the values were obtained:
Vero = assay: host cell viability loss, Vero E6 – synthesized analogs, cytotoxicity control for West Nile virus antiviral project, SAR follow-up (AID 2244); format: functional; conditions: Chlorocebus sabaeus
[1] = luciferase reporter signal suppression in cells – H4 neuroglioma cells, luminescence, dose response (AID 1990); format: functional, cell-based
BJ [2] = assay: BJ-TERT fibroblast viability loss – cell-based, RAS-independent, luminescence, dose response (AID 1933); format: functional; conditions: Homo sapiens
[3] = Luminescence Cell-Based Dose Response HTS to Identify Inhibitors of 5'UTR Stem-Loop Driven Prion Protein mRNA Translation in H4 Neuroglioblastoma Cells. [Related pubchem assays: 1827 (Project Summary), 1813 (Primary HTS)]; format: functional
[4] = alpha-synuclein stem-loop luciferase translation blockers – H4 neuroglioma cells, luminescence, confirmation (AID 1988); format: functional, cell-based
[5] = biological target: T1, Alkaline phosphatase, tissue-nonspecific isozyme (Homo sapiens, UniProt P05186)
T1 sequence (P05186 whole entry): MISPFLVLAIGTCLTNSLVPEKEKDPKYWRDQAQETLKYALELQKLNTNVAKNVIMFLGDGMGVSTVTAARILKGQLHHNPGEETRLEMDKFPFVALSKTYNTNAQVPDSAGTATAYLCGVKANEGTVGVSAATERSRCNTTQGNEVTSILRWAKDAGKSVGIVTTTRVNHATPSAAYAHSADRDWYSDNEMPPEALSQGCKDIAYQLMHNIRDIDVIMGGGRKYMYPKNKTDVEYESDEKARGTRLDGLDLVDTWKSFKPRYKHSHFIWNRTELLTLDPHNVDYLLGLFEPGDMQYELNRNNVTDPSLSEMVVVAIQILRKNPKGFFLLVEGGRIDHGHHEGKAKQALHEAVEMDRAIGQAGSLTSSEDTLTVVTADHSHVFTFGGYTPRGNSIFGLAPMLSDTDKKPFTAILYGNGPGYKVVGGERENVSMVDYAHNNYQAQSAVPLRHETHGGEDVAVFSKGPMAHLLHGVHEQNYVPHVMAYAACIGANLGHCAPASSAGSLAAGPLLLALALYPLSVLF

BJ [6] = assay: cells; format: functional, cell-based; conditions: Homo sapiens
BJ [7] = assay: BJ-TERT-LT-ST fibroblast viability loss – cell-based, RAS-independent, luminescence, dose response (AID 1935); format: functional; conditions: Homo sapiens;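 note: BJ fibroblasts immortalized with TERT plus LT and ST oncogenes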
[8] = DRD fibroblast viability loss – cell-based, non-viral oncogenic, luminescence, dose response (AID 1934); format: functional; conditions: Homo sapiens
[9] = luciferase reporter signal reduction – luminescence, H4-C neuroglioblastoma cells, dose response (AID 2458); format: functional, cell-based;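 note: H4 neuroglioblastoma cells stably carrying a luciferase reporter gene fusion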
cells = format: functional, cell-based
[10] = Luminescence-based dose response cell-based high throughput screening assay for cytotoxic compounds using the IEC-6 intestinal epithelial cell line. [Related pubchem assays: 1858 (Summary AID.), 1825 (Counterscreen.), 1907 (Confirmation screen.)]; format: functional
[11] = alpha-synuclein stem-loop translation blockers – luminescence, H4 neuroglioblastoma cells, dose confirmation, confirmation (AID 2454); format: functional, cell-based;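 note: H4 neuroglioblastoma cells carrying an alpha-synuclein 5'UTR luciferase reporter; potency for inhibition of the luciferase signal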
BJ [12] = assay: growth inhibition of engineered Ras-driven BJ cells – cell-based, alamar blue fluorescence, cherrypicked samples, dose response (AID 2631); format: functional; conditions: Homo sapiens;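 note: confirmatory dose-response assay in RAS-dependent BJ fibroblasts engineered with TERT, LT and ST, with cytotoxicity read by fluorescence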
Cytochrome P450 2C19 = Cytochrome P450 2C19 (Homo sapiens, UniProt P33261); assay: qHTS Assay for Inhibitors and Substrates of Cytochrome P450 2C19. [Related pubchem assays: 410 ]; format: ADME; conditions: read-out: Potency
Sequence of Cytochrome P450 2C19 (P33261 whole entry): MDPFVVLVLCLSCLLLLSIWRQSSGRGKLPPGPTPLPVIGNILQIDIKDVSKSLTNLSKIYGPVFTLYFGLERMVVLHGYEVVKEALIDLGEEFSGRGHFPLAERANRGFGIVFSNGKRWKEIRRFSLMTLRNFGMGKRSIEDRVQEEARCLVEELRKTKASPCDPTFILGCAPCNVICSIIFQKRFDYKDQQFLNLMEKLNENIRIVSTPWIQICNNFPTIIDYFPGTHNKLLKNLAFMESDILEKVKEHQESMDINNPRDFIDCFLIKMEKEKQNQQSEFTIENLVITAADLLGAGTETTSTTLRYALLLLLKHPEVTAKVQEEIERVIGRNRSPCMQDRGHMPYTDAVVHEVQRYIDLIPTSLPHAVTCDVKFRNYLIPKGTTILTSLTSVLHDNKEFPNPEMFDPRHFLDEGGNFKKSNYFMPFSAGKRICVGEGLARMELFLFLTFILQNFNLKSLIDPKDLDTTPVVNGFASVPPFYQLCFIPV

Cytochrome P450 2D6 = Cytochrome P450 2D6 (Homo sapiens, UniProt P10635); assay: qHTS Assay for Inhibitors and Substrates of Cytochrome P450 2D6. [Related pubchem assays: 410 ]; format: ADME; conditions: read-out: Potency
Sequence of Cytochrome P450 2D6 (P10635 whole entry): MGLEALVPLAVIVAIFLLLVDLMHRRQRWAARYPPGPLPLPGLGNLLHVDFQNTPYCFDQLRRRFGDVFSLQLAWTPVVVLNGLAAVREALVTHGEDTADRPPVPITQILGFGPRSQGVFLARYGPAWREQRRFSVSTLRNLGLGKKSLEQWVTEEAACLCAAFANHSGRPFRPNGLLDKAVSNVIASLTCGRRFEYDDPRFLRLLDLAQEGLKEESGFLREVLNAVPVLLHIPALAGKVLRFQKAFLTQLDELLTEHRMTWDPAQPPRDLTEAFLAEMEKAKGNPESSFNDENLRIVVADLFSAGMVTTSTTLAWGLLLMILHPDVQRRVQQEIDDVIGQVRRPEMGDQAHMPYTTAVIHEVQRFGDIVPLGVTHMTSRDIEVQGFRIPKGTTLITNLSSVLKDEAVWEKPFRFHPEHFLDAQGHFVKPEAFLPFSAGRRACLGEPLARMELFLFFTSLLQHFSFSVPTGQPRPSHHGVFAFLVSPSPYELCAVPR

Cytochrome P450 3A4 = Cytochrome P450 3A4 (Homo sapiens, UniProt P08684); conditions: Potency;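 note: confirmatory qHTS run detecting inhibitors and substrates of CYP3A4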
Sequence of Cytochrome P450 3A4 (P08684 whole entry): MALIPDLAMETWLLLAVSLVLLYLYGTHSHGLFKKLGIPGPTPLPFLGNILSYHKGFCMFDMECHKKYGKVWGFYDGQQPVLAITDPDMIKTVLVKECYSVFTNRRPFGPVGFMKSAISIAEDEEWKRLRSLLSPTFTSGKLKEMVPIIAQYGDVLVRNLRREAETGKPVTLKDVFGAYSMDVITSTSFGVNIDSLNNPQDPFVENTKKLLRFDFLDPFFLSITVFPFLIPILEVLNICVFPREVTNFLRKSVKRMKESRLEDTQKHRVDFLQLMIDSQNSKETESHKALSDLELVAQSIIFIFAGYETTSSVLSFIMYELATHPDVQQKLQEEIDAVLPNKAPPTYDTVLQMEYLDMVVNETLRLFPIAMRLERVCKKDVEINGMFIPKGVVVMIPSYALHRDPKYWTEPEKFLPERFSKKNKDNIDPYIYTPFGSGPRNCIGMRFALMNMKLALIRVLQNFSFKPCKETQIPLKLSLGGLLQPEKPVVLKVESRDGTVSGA

Cytochrome P450 2C9 = Cytochrome P450 2C9 (Homo sapiens, UniProt P11712); conditions: Potency
Sequence of Cytochrome P450 2C9 (P11712 whole entry): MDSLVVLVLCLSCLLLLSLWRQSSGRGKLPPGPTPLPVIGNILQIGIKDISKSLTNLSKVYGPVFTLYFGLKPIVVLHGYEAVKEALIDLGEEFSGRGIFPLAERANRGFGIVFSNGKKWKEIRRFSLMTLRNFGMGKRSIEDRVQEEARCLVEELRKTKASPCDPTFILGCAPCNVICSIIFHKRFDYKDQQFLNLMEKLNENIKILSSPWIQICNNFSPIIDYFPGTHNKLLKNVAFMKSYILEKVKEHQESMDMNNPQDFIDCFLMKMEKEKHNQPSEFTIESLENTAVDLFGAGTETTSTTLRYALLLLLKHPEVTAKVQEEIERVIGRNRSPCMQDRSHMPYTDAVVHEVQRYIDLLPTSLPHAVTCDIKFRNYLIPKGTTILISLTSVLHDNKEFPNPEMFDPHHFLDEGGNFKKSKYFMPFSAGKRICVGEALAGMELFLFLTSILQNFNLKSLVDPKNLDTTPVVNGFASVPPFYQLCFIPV

[13] = biological target: DNA dC->dU-editing enzyme APOBEC-3A (Homo sapiens, UniProt P31941); assay: A3A deaminase inhibition for selectivity – biochemical, dose response (AID 504722); format: functional
Sequence of DNA dC->dU-editing enzyme APOBEC-3A (P31941 whole entry): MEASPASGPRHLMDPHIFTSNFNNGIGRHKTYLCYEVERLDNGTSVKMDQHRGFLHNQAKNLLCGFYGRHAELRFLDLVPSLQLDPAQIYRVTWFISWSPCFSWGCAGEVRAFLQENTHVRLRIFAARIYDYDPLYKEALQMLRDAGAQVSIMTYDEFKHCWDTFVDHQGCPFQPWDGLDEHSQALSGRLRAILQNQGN

[14] = biological target: DNA dC->dU-editing enzyme APOBEC-3G (Homo sapiens, UniProt Q9HC16); assay: Dose Response confirmation of small molecule APOBEC3G DNA Deaminase Inhibitors via a fluorescence-based single-stranded DNA deaminase assay. [Related pubchem assays (depositor defined):AID493012, AID493028]; format: functional
Sequence of DNA dC->dU-editing enzyme APOBEC-3G (Q9HC16 whole entry): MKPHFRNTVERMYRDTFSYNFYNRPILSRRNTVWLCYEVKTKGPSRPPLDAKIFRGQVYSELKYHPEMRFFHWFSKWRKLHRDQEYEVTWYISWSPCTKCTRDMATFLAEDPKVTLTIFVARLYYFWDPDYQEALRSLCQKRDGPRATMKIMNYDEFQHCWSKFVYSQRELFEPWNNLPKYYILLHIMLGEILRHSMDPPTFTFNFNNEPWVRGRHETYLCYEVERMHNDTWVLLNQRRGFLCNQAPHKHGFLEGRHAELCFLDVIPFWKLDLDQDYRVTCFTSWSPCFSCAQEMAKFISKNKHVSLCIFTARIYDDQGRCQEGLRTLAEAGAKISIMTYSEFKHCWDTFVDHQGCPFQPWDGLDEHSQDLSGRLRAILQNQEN

HeLa = assay: viability loss in HeLa cells – cell-based, 24 h, cherry-picked samples, cytotoxicity control, dose response (AID 504726); format: functional; conditions: Homo sapiens;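 note: potency for cytotoxicity as loss of luminescence signal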
Caspase-6 = Caspase-6 (Homo sapiens, UniProt P55212); assay: inhibition of CASP6 peptide cleavage – biochemical, VEID-R110 fluorescence, cherry-pick, dose response (AID 720632)
Sequence of Caspase-6 (P55212 24-179 limits assumed): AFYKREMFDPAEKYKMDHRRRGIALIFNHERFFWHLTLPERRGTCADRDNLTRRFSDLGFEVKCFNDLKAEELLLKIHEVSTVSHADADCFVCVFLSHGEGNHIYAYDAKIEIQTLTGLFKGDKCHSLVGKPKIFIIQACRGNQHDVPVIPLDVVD
Sequence of Caspase-6 (P55212 194-293 limits assumed): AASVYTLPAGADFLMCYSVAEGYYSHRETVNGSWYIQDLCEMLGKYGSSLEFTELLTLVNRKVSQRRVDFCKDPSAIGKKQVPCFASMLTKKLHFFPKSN

[15] = biological target: T2, Histone-lysine N-methyltransferase NSD2 (Homo sapiens, UniProt O96028); format: biochemical
T2 sequence (O96028 whole entry): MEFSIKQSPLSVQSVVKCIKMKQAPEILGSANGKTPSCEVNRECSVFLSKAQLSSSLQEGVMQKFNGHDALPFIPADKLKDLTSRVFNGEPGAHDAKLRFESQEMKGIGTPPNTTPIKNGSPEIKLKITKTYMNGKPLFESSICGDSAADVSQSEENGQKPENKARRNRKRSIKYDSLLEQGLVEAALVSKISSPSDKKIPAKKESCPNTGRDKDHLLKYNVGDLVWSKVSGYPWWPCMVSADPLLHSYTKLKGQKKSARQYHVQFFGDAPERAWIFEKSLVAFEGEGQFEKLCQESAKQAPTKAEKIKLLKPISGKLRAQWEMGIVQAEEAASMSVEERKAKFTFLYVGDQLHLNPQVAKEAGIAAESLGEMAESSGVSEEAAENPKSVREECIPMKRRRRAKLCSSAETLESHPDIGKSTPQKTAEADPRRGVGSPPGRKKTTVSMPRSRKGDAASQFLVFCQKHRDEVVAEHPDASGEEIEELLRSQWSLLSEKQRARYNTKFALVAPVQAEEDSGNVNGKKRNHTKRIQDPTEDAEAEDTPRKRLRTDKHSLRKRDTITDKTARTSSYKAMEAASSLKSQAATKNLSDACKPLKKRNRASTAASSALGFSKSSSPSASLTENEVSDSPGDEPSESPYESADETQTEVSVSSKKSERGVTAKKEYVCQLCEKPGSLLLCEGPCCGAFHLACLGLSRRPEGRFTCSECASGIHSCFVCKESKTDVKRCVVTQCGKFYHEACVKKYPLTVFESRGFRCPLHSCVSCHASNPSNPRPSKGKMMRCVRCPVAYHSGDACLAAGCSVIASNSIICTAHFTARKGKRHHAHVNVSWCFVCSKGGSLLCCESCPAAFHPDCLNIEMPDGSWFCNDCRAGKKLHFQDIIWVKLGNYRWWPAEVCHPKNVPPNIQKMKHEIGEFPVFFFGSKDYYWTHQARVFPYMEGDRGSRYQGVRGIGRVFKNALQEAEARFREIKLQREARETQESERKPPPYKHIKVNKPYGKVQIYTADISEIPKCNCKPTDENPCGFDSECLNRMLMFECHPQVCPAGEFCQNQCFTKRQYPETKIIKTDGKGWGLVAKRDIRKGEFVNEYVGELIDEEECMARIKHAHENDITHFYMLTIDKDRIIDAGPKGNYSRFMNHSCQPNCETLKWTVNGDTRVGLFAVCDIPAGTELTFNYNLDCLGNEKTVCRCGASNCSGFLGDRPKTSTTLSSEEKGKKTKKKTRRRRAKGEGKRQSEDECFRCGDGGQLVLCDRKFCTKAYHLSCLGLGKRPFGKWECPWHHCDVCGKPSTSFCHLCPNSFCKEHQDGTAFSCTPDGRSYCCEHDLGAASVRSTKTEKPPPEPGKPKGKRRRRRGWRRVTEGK

[16] = biological target: G-protein coupled receptor 35 (Homo sapiens, UniProt Q9HC97); assay: inhibition of zaprinast-stimulated GPR35 beta-arrestin translocation – imaging, U2OS, beta-arrestin-GFP, zaprinast agonist, primary screen (AID 2058); format: functional;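 note: antagonist potency meaning inhibition of agonist-induced arrestin redistribution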
Sequence of G-protein coupled receptor 35 (Q9HC97 whole entry): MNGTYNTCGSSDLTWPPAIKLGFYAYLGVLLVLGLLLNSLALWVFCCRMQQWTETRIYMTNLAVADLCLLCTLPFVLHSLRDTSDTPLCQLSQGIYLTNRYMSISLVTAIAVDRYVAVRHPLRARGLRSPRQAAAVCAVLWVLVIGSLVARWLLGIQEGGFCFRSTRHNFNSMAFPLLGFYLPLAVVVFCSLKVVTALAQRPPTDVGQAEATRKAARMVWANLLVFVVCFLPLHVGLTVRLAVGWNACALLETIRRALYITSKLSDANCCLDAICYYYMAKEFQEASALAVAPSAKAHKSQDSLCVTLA

[17] = test system: Streptococcus sp. 'group A'; assay: Streptococcus pyogenes SK(-)GAS viability under kanamycin – luminescence, BacTiterGlo, confirmation, counter-screen for streptokinase expression inhibitor project, dose response (AID 1900); format: functional, organism-based
[18] = biological target: T3, Heat shock factor protein 1 (Mus musculus, UniProt P38532); assay: decrease of HSF1-responsive luciferase luminescence – cell-based, NIH3T3, dose retest, confirmation (AID 2382); format: functional;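 note: NIH3T3 fibroblasts with HSF1-driven luciferase reporter stressed by proteasome inhibitor MG132; luminescence from HSF1-driven luciferase expression after 8 hours of MG132 stress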
T3 sequence (P38532 whole entry): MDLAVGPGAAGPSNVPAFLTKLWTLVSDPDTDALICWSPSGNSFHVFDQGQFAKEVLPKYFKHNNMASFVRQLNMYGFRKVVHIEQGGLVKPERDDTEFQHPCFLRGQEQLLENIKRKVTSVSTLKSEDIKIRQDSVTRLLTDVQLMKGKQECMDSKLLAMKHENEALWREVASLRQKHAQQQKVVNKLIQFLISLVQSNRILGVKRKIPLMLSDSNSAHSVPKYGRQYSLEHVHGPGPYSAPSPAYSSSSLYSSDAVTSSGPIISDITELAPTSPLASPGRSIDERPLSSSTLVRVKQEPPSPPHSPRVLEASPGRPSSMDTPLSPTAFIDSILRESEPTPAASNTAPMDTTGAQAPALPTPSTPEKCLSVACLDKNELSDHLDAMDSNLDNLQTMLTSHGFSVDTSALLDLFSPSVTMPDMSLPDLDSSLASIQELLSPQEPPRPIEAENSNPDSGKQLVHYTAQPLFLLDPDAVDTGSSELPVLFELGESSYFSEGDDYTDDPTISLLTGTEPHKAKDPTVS

Streptococcus = assay: GAS UMAA2166 growth inhibition – luminescence, BacTiterGlo, counter-screen for streptokinase expression inhibitor project, dose response (AID 1915); format: functional, organism-based;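 note: potency for reduction of bacterial viability or growth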
[19] = Luminescence Cell-Based Dose Retest to Confirm Inhibitors of Cancer Stem Cells. [Related pubchem assays (depositor defined):AID2717, AID2721]; format: functional; conditions: Homo sapiens

O=C(Nc1nc(-c2ccc(Cl)cc2)cs1)c1ccccc1Cl
CC50 (Vero): > 40 µM (active)

COc1cccc2sc(Nc3nc4ccc(NC(C)=O)cc4s3)nc12
EC50 [1]: > 120 µM (not active) | EC50 (BJ [2]): 67.8 µM (active) | EC50 [3]: 12.6 µM (active) | EC50 [4]: 10.7 µM (active) | EC50 [5]: > 100 µM (not active) | EC50 (BJ [6]): 28.2 µM (active) | EC50 (BJ [7]): > 150 µM (not active) | EC50 [8]: 30 µM (active)

Cc1cccc2cc(C#N)c(SCC(=O)N3CC(=O)Nc4ccccc43)nc12
EC50 [9]: 1.59 µM (active) | EC50 (BJ [2]): 0.583 µM (inconclusive) | EC50 (cells): 2.36 µM (active) | EC50 [4]: < 0.1 µM (active) | EC50 (BJ [6]): 18 µM (active) | IC50 [10]: 0.58 µM (active) | EC50 (BJ [7]): 0.46 µM (active) | EC50 [8]: 0.804 µM (active) | EC50 [11]: 1.42 µM (active) | EC50 (BJ [12]): < 0.104 µM (active)

COC(=O)NC(/C(C(=O)OC)=C(\C)NCc1ccccc1)c1ccccc1 (configuration not stated)
AC50 (Cytochrome P450 2C19): 0.0079 µM (inconclusive) | AC50 (Cytochrome P450 2D6): 3.98 µM (inconclusive) | AC50 (Cytochrome P450 3A4): 3.98 µM (inconclusive) | AC50 (Cytochrome P450 2C9): 3.16 µM (inconclusive)

C=CCn1c(-c2cccc(Cl)c2)n[nH]c1=S
IC50 [13]: > 100 µM (inactive) | IC50 [14]: 6.21 µM (active)

COC(=O)C(/C=C/C(C)Cc1cc(Br)cc(OCc2ccccc2)c1OC)OCc1ccccc1 (configuration not stated)
AC50 (Cytochrome P450 3A4): 3.16 µM (inconclusive) | AC50 (Cytochrome P450 2C9): 3.16 µM (inconclusive)

CCN(C(=O)COC(=O)c1ccc([N+](=O)[O-])o1)C1CCCCC1
AC50 (HeLa): > 350 µM (inactive) | AC50 (Caspase-6): 34.1 µM (active) | AC50 [15]: > 20 µM (inactive)

COc1cccc(/C=N/n2c(S)nnc2-c2[nH]nc3c2CCC3)c1OC
IC50 [13]: > 100 µM (inactive) | IC50 [14]: 3.45 µM (active)

CC12CCC(C/C1=N\NC1=NC(=O)/C(=C\c3ccc(Cl)cc3)S1)C2(C)C (configuration not stated)
IC50 [16]: 13.9 µM (inactive) | EC50 [17]: 1.18 µM (active) | EC50 [18]: 1.2 µM (active) | EC50 (Streptococcus): 2.34 µM (active) | AC50 [19]: 2.16 µM (active)
